The values below come from US9096565B2, “Inhibitors of histone deacetylase” (MethylGene Inc., priority 2007, dated 2015).

Molecules are shown by their SMILES.

The target of the experiment is one or more of HDAC-4, HDAC-5, HDAC-6, HDAC-7, HDAC-8, HDAC-9, HDAC-10 and HDAC-11. The experiment is described as follows: Inhibition of histone deacetylase enzymatic activity (summary statement over isoforms). It is filed as biochemical. The settings on record: Table 3, selected examples; HDAC isoform not given. The essentials: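 Activity was measured as deacetylation of the fluorogenic substrate Boc-Lys(trifluoroacetyl)-AMC over 20-30 min at 37 °C, after a 5 min room-temperature preincubation of enzyme with compound. Trypsin (1 mg/mL) with a reference HDAC inhibitor ended the reaction.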

Broadly, the IC50 is the concentration that gives 50% inhibition. A high value points to a need for much substance. For `O=C(NO)C(c1ccc(N2CCOCC2)cc1)c1cccc2ccccc12` (stereo not shown) [Compound 5-122, N-hydroxy-2-(4-morpholinophenyl)-2-(naphthalen-1-yl)acetamide], the IC50 is less than 1 µM.

Turning to `COc1cccc(CNc2cccc(C(C(=O)NO)c3ccccc3)c2)c1` (stereo not shown) [Compound 2-85, N-hydroxy-2-(3-(3-methoxybenzylamino)phenyl)-2-phenylacetamide], the IC50 is less than 1 µM.

Consider `COc1ccc(-c2ccnc(SC(C(=O)NO)c3ccccc3)n2)cc1` (stereo not shown) [Compound 6-42, N-hydroxy-2-(4-(4-methoxyphenyl)pyrimidin-2-ylthio)-2-phenylacetamide], for which the IC50 was 1 to 15 µM.

With `O=C(NO)/C(=C/c1ccccc1)c1ccccc1` [Compound 1-21, (E)-N-hydroxy-2,3-diphenylacrylamide], the IC50 was less than 1 µM.

Take `Cc1cc(C)cc(COc2ccc(C(C(=O)NO)c3ccccc3)cc2)c1` (stereo not shown) [Compound 3-62, 2-(4-(3,5-dimethylbenzyloxy)phenyl)-N-hydroxy-2-phenylacetamide]: the IC50 is less than 1 µM.

In the case of `Cc1cccc(COc2cccc(C(C(=O)NO)c3ccccc3)c2)c1` (stereo not shown) [Compound 3-33, N-hydroxy-2-(3-(3-methylbenzyloxy)phenyl)-2-phenylacetamide], the concentration for half-maximal inhibition (IC50) fell in the range of 1 to 15 µM.

Turning to `CC(C)CC(=O)Nc1ccc(C(C(=O)NO)c2ccccc2)cc1` (stereo not shown) [Compound 2-53, N-(4-(2-(hydroxyamino)-2-oxo-1-phenylethyl)phenyl)-3-methylbutanamide], the IC50 is less than 1 µM.

As for `O=C(NO)C(Sc1ccncc1)c1ccccc1` (stereo not shown) [Compound 2-45, N-hydroxy-2-phenyl-2-(pyridin-4-ylthio)acetamide], the IC50 fell in the range of 1 to 15 µM.

In the case of `CN(C)c1ccc(C(C(=O)NO)c2ccccc2)c2ccccc12` (stereo not shown) [Compound 5-32, 2-(4-(dimethylamino)naphthalen-1-yl)-N-hydroxy-2-phenylacetamide], the IC50 lay within 1 to 15 µM.

For the compound `O=C(NO)C(c1ccc(N2CCOCC2)cc1)c1cccc(F)c1` (stereo not shown) [Compound 5-118, 2-(3-fluorophenyl)-N-hydroxy-2-(4-morpholinophenyl)acetamide], the IC50 is less than 1 µM.

On to `CSc1ccc(OC(C(=O)NO)c2ccccc2)cc1` (stereo not shown) [Compound 7-18, N-hydroxy-2-(4-(methylthio)phenoxy)-2-phenylacetamide], for which the IC50 is 1 to 15 µM.

In turn, `O=CN(O)C(c1ccccc1)c1ccccc1` [Compound 1-47, N-benzhydryl-N-hydroxyformamide] displayed an IC50 of less than 1 µM.

In turn, `Cn1cc(C2CCN(C(C(=O)NO)c3ccccc3)CC2)c2ccccc21` (stereo not shown) [Compound 6-45, N-hydroxy-2-(4-(1-methyl-1H-indol-3-yl)piperidin-1-yl)-2-phenylacetamide] registered an IC50 of less than 1 µM.

On to `O=C(NO)C(c1ccccc1)c1ccc(OCCOc2ccccc2)cc1` (stereo not shown) [Compound 3-64, N-hydroxy-2-(4-(2-phenoxyethoxy)phenyl)-2-phenylacetamide], for which the 50% inhibitory concentration (IC50) was less than 1 µM.

Take `O=C(NO)C(c1ccccc1)c1ccc(N2CCN(c3ccccc3)CC2)cc1` (stereo not shown) [Compound 5-26, N-hydroxy-2-phenyl-2-(4-(4-phenylpiperazin-1-yl)phenyl)acetamide]: the IC50 was less than 1 µM.

As to `O=C(Nc1ccc(C(C(=O)NO)c2ccccc2)cc1)c1ccc(F)cc1` (stereo not shown) [Compound 2-61, 4-fluoro-N-(4-(2-(hydroxyamino)-2-oxo-1-phenylethyl)phenyl)benzamide], the IC50 is less than 1 µM.

As to `CCN(CC)c1ccc(C(C(=O)NO)c2cccc(F)c2)cc1` (stereo not shown) [Compound 6-37], the IC50 was less than 1 µM.

In turn, `O=C(NO)C(c1ccccc1)c1cccc(N2CCN(Cc3ccncc3)CC2)c1` (stereo not shown) [Compound 3-12, N-hydroxy-2-phenyl-2-(3-(4-(pyridin-4-ylmethyl)piperazin-1-yl)phenyl)acetamide] showed an IC50 of less than 1 µM.

As to `O=C(NO)C(Sc1nccc(-c2cccs2)n1)c1ccccc1` (stereo not shown) [Compound 2-48, N-hydroxy-2-phenyl-2-(4-(thiophen-2-yl)pyrimidin-2-ylthio)acetamide], the IC50 lay in the range of 1 to 15 µM.

In turn, `O=C(NO)C(c1ccccc1)c1ccc(-c2ccccc2)cc1` (stereo not shown) [Compound 1-32, 2-(biphenyl-4-yl)-N-hydroxy-2-phenylacetamide] yielded an IC50 of less than 1 µM.

In the case of `CC(C)NC(=O)N1CCCN(C(C(=O)NO)c2ccccc2)CC1` (stereo not shown) [Compound 2-31, 4-(2-(hydroxyamino)-2-oxo-1-phenylethyl)-N-isopropyl-1,4-diazepane-1-carboxamide], the IC50 is 1 to 15 µM.

`O=C(NO)C(c1ccccc1)c1ccc(-c2cncnc2)cc1` (stereo not shown) [Compound 5-23, N-hydroxy-2-phenyl-2-(4-(pyrimidin-5-yl)phenyl)acetamide] had an IC50 of less than 1 µM.

In the case of `CC(C)c1ccc(SC(C(=O)NO)c2ccccc2)cc1` (stereo not shown) [Compound 2-21, N-hydroxy-2-(4-isopropylphenylthio)-2-phenylacetamide], the IC50 is 1 to 15 µM.

As for `O=C(NO)C(c1ccccc1)c1ccc(NCC2CCCCC2)cc1` (stereo not shown) [Compound 2-82, 2-(4-(cyclohexylmethylamino)phenyl)-N-hydroxy-2-phenylacetamide], the IC50 was less than 1 µM.

Regarding `O=C(NO)C(Oc1ccc2c(c1)OCO2)c1ccccc1` (stereo not shown) [Compound 7-17, 2-(benzo[d][1,3]dioxol-5-yloxy)-N-hydroxy-2-phenylacetamide], the IC50 is 1 to 15 µM.

`O=C(NO)C(c1ccccc1)c1ccc(N2C[C@@H]3C[C@]3(c3ccc(Cl)c(Cl)c3)C2)cc1` (stereo partly drawn) [Compound 6-16, 2-(4-((1S,5R)-1-(3,4-dichlorophenyl)-3-azabicyclo[3.1.0]hexan-3-yl)phenyl)-N-hydroxy-2-phenylacetamide]: the IC50 is less than 1 µM.

The compound `O=C(NO)C(c1ccccc1)n1cc(Cc2ccccc2)nn1` (stereo not shown) [Compound 1-35, 2-(4-benzyl-1H-1,2,3-triazol-1-yl)-N-hydroxy-2-phenylacetamide] showed a 50% inhibitory concentration (IC50) of less than 1 µM.

In the case of `O=C(NO)C(c1ccccc1)c1cccc(-c2ccccc2)c1` (stereo not shown) [Compound 5-29, 2-(biphenyl-3-yl)-N-hydroxy-2-phenylacetamide], the IC50 is less than 1 µM.

As for `O=C(Cc1ccccc1)Nc1ccc(C(C(=O)NO)c2ccccc2)cc1` (stereo not shown) [Compound 2-59, N-hydroxy-2-phenyl-2-(4-(2-phenylacetamido)phenyl)acetamide], the IC50 was less than 1 µM.

Regarding `O=C(NO)C(c1ccccc1)c1ccc(OCCOCc2ccccc2)cc1` (stereo not shown) [Compound 3-68, 2-(4-(2-(benzyloxy)ethoxy)phenyl)-N-hydroxy-2-phenylacetamide], the IC50 was less than 1 µM.

For the compound `CCN(CC)CC#Cc1ccc(C(C(=O)NO)c2ccccc2)cc1` (stereo not shown) [Compound 5-101, 2-(4-(3-(diethylamino)prop-1-ynyl)phenyl)-N-hydroxy-2-phenylacetamide], the IC50 is less than 1 µM.

`O=C(NO)C(c1ccccc1)c1ccc(Nc2ccccc2)cc1` (stereo not shown) [Compound 3-80, N-hydroxy-2-phenyl-2-(4-(phenylamino)phenyl)acetamide]: the IC50 is less than 1 µM.

Compound `O=C(NO)C(c1ccccc1)N1CCN(Cc2cccnc2)CC1` (stereo not shown) [Compound 2-40, N-hydroxy-2-phenyl-2-(4-(pyridin-3-ylmethyl)piperazin-1-yl)acetamide] displayed an IC50 of 1 to 15 µM.

For the compound `O=C(NO)C(c1ccccc1)c1ccc(N2CCC2)cc1` (stereo not shown) [Compound 6-39, 2-(4-(azetidin-1-yl)phenyl)-N-hydroxy-2-phenylacetamide], the IC50 was less than 1 µM.
